This note sets out measurements from patent EP0363856A1, “Derivative of coumarin, process for its preparation and its use” (HOECHST AKTIENGESELLSCHAFT, priority 1988, dated 1990).

Each structure is given as a SMILES string.

This assay addresses T1, Angereicherte γ-Glutamyl-Transpeptidasen (Bacillus subtilis subsp. natto, UniProt P63186).
T1 construct: Angereicherte γ-Glutamyl-Transpeptidasen der in Beispiel 3 genannten Mikroorganismen; endogenous in cells; host or cells: Bacillus subtilis "natto" IFO 3025, enzyme enriched from the culture
As to the kind of experiment: Incubation of enriched enzyme with cephalosporin substrates (hydrolysis to D-α-Aminoadipinsäure and nucleus). It is filed as biochemical. Conditions: enriched enzyme from Bacillus subtilis; hydrolysis to D-α-Aminoadipinsäure and Desacetyl-7ACA or 7ACA. An excerpt:
Angereicherte γ-Glutamyl-Transpeptidasen der in Beispiel 3 genannten Mikroorganismen wurden mit Desacetyl-Cephalosporin C inkubiert. Nur das Enzym aus Bacillus subtilis, welches auch AAA-AMC spaltet, kann Desacetyl-Cephalosporin C und Cephalosporin C zu D-α-Aminoadipinsäure und Desacetyl-7ACA (18 % Umsetzung) bzw. 7ACA (3 % Umsetzung) hydrolysieren.

T1 sequence (P63186 36-587): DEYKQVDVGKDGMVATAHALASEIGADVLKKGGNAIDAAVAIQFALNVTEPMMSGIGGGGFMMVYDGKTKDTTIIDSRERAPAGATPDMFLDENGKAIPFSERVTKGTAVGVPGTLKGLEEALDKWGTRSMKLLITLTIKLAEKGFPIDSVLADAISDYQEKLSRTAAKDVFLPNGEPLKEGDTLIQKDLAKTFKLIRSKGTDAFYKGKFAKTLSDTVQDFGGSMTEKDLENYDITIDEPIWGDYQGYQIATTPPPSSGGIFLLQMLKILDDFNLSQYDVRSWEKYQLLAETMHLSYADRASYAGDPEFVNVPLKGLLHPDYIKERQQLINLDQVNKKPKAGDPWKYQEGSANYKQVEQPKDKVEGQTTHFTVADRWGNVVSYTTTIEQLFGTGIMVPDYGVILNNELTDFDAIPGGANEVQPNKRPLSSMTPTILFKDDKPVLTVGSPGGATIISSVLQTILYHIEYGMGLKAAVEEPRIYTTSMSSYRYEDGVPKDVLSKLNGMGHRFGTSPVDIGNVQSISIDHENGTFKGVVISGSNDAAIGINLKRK

In turn, `CC(=O)OCC1=C(C(=O)O)N2C(=O)[C@@H](NC(=O)CCC[C@@H](N)C(=O)O)[C@H]2SC1` [Cephalosporin C] gave a Umsetzung of 3%.

Regarding `N[C@H](CCCC(=O)N[C@@H]1C(=O)N2C(C(=O)O)=C(CO)CS[C@H]12)C(=O)O` [Desacetyl-Cephalosporin C], the Umsetzung stood at 18%.
